The results in this text go back to ChEMBL document CHEMBL1147396, “A new antimalarial quassinoid from Simaba guianensis” (J Nat Prod, 1993).

Values after ≈ are worked out from the molar mass of the structure shown.

Assay [1] deals with Plasmodium falciparum. As to the kind of experiment: Antimalarial activity against mefloquine-resistant Plasmodium falciparum D6 (Sierra Leone) after 24 to 60 hrs by [G-H3]hypoxanthine uptake. In kind it is functional, organism-based.
Assay [2] has as its system Plasmodium falciparum. Put plainly: Antimalarial activity against chloroquine-resistant Plasmodium falciparum Indochina W2 after 24 to 60 hrs by [G-H3]hypoxanthine uptake. In kind it is functional, organism-based.

Take `C[C@@H]1CC[C@H]2[C@@H](C)C(=O)O[C@@H]3O[C@@]4(C)CC[C@@H]1[C@]32OO4` [ARTEMISININ]: the concentration for half-maximal inhibition (IC50) (commonly the concentration that gives 50% inhibition) in the assay on Plasmodium falciparum [1] worked out at 2.1 ng/mL (≈ 7.44 nM). Turning to `CC(C)=CC(=O)O[C@H]1C(=O)O[C@@H]2C[C@H]3C(C)=CC(=O)[C@@H](O)[C@]3(C)[C@H]3[C@@H](O)[C@H](O)[C@]4(C)OC[C@]32[C@@H]14` [GUTOLACTONE], the values for the IC50 with Plasmodium falciparum [2] and in the assay with Plasmodium falciparum [1] were 4 ng/mL (≈ 8.39 nM) and 4.1 ng/mL (≈ 8.6 nM), respectively. The compound `OC(c1cc(C(F)(F)F)nc2c(C(F)(F)F)cccc12)C1CCCCN1` (configuration not stated) [MEFLOQUINE] showed a concentration for half-maximal inhibition (IC50) in the assay with Plasmodium falciparum [2] of 1.5 ng/mL (≈ 3.96 nM). In turn, `C=C[C@H]1CN2CC[C@H]1C[C@H]2[C@H](O)c1ccnc2ccc(OC)cc12` [QUININE] displayed a half-inhibitory concentration (IC50) with Plasmodium falciparum [2] of 68.6 ng/mL (≈ 211 nM). On to `CC[C@@H](C)C(=O)O[C@H]1C(=O)O[C@@H]2C[C@H]3C(C)=CC(=O)[C@@H](O)[C@]3(C)[C@H]3[C@@H](O)[C@H](O)[C@]4(C)OC[C@]32[C@@H]14` [SIMALIKALACTONE D], for which the half-inhibitory concentration (IC50) is 1.6 ng/mL (≈ 3.34 nM) in the assay with Plasmodium falciparum [2] and 1.5 ng/mL (≈ 3.13 nM) in the assay on Plasmodium falciparum [1].
